Our source for the T/C values is PubChem BioAssay AID248 (DTP/NCI, 2004).

Structures are written as SMILES. Where “and” joins values, the source holds several entries; their conditions need not be identical. Identical values can stand only once. Inconclusive results and toxic doses are left out.

For the test, the system named is L1210 leukemia ip in BDF1 mice, survival T/C. Put plainly: NCI In Vivo Anticancer Drug Screen. Data for tumor model L1210 Leukemia (intraperitoneal) in B6D2F1 (BDF1) mice. The settings on record: endpoint: mean survival time, higher = longer survival. The method, boiled down:
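Mice bearing the transplanted tumor received compound or vehicle. Survival of the treated group was divided by that of the vehicle-treated control group to give the ratio.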

Setting [1] is: dose: 100.0 mg/kg/injection, schedule: Q01DX009 (ip), vehicle: Klucel (hydroxypropylcellulose) (HPC).
Setting [2] is: dose: 200.0 mg/kg/injection, schedule: Q01DX009 (ip), vehicle: Klucel (hydroxypropylcellulose) (HPC).
The mark [3] stands for this setting: dose: 100.0 mg/kg/injection, schedule: Q04DX003 (ip), vehicle: Klucel (hydroxypropylcellulose) (HPC).
Where [4] appears, read: dose: 200.0 mg/kg/injection, schedule: Q04DX003 (ip), vehicle: Klucel (hydroxypropylcellulose) (HPC).
The mark [5] stands for this setting: dose: 400.0 mg/kg/injection, schedule: Q04DX003 (ip), vehicle: Klucel (hydroxypropylcellulose) (HPC).

As to `CC1(C)c2cc3ccc(Cl)cc3nc2-c2ccccc2C1(C)O` (stereo not drawn), the T/C under setting [1] is 89 % of control; the T/C (dose: 100.0 mg/kg/injection, schedule: Q04DX003 (ip), vehicle: acetone) is 98 % of control; the T/C under setting [2] was 89 % of control; the T/C (dose: 200.0 mg/kg/injection, schedule: Q04DX003 (ip), vehicle: acetone) was 101 % of control; the T/C (dose: 400.0 mg/kg/injection, schedule: Q04DX003 (ip), vehicle: acetone) was 91 % of control.

For the compound `ClC(Cl)(Cl)C(Cl)(Cl)OC(Cl)(Cl)C(Cl)(Cl)Cl`, the T/C reads like this: (dose: 100.0 mg/kg/injection, schedule: Q01DX001 (ip), vehicle: Klucel (hydroxypropylcellulose) (HPC)) 107 % of control; under setting [3], 100 % of control; (dose: 200.0 mg/kg/injection, schedule: Q01DX001 (ip), vehicle: Klucel (hydroxypropylcellulose) (HPC)) 112 % of control; under setting [4], 92 % of control; (dose: 400.0 mg/kg/injection, schedule: Q01DX001 (ip), vehicle: Klucel (hydroxypropylcellulose) (HPC)) 95 % of control; under setting [5], 95 % of control.

`CN1CCCC(OC(=O)c2cc3ccccc3s2)C1` (stereo not drawn): the T/C is 101 % of control (dose: 100.0 mg/kg/injection, schedule: Q01DX001 (ip), vehicle: carboxymethylcellulose (CMC)); 106 % of control (dose: 200.0 mg/kg/injection, schedule: Q01DX001 (ip), vehicle: carboxymethylcellulose (CMC)); 98 % of control (dose: 400.0 mg/kg/injection, schedule: Q01DX001 (ip), vehicle: carboxymethylcellulose (CMC)).

Consider `COc1ccc(F)cc1CC(N)=O`, for which the T/C was 101 % of control (dose: 100.0 mg/kg/injection, schedule: Q04DX002 (ip), vehicle: Klucel (hydroxypropylcellulose) (HPC)); 97 % of control (dose: 200.0 mg/kg/injection, schedule: Q04DX002 (ip), vehicle: Klucel (hydroxypropylcellulose) (HPC)); 104 % of control (dose: 400.0 mg/kg/injection, schedule: Q04DX002 (ip), vehicle: Klucel (hydroxypropylcellulose) (HPC)).

For `O=C(Nc1cccc(C2=NCCCN2)c1)Nc1ccc(NC(=O)Nc2cccc(C3=NCCCN3)c2)c(Cl)c1`, the T/C runs as follows: (dose: 0.47 mg/kg/injection, schedule: Q01DX Z (ip), vehicle: carboxymethylcellulose (CMC)) 121 % of control; (dose: 0.93 mg/kg/injection, schedule: Q01DX Z (ip), vehicle: carboxymethylcellulose (CMC)) 118 % of control; (dose: 3.75 mg/kg/injection, schedule: Q01DX Z (ip), vehicle: carboxymethylcellulose (CMC)) 156 % of control and 204 % of control; (dose: 7.5 mg/kg/injection, schedule: Q01DX Z (ip), vehicle: carboxymethylcellulose (CMC)) 229 % of control; (dose: 18.0 mg/kg/injection, schedule: Q01DX001 (ip), vehicle: carboxymethylcellulose (CMC)) 152 % of control; (dose: 25.0 mg/kg/injection, schedule: Q01DX Z (oral), vehicle: carboxymethylcellulose (CMC)) 101 % of control. Besides, the T/C reads like this: (dose: 26.0 mg/kg/injection, schedule: Q01DX001 (ip), vehicle: carboxymethylcellulose (CMC)) 150 % of control; (dose: 26.0 mg/kg/injection, schedule: Q01DX001 (ip), vehicle: other) 154 % of control; (dose: 40.0 mg/kg/injection, schedule: Q01DX001 (ip), vehicle: carboxymethylcellulose (CMC)) 150 % of control and 162 % of control; (dose: 40.0 mg/kg/injection, schedule: Q01DX001 (ip), vehicle: other) 171 % of control; (dose: 50.0 mg/kg/injection, schedule: Q01DX Z (oral), vehicle: carboxymethylcellulose (CMC)) 98 % of control; (dose: 60.0 mg/kg/injection, schedule: Q01DX001 (ip), vehicle: carboxymethylcellulose (CMC)) 173 % of control and 200 % of control. Moreover, the T/C runs as follows: (dose: 60.0 mg/kg/injection, schedule: Q01DX001 (ip), vehicle: other) 185 % of control; (dose: 80.0 mg/kg/injection, schedule: Q01DX001 (ip), vehicle: carboxymethylcellulose (CMC)) 236 % of control; (dose: 100.0 mg/kg/injection, schedule: Q01DX Z (oral), vehicle: carboxymethylcellulose (CMC)) 104 % of control; (dose: 200.0 mg/kg/injection, schedule: Q01DX Z (oral), vehicle: carboxymethylcellulose (CMC)) 101 % of control.

For the compound `Cc1ccc(N2SC(Cl)(Cl)N(c3ccc(C)cc3)SC2(Cl)Cl)cc1`, the T/C is 94 % of control under setting [3], 90 % of control under setting [4] and 100 % of control under setting [5].

In the case of `CCN(CC)Cc1ccccc1`, the T/C (dose: 75.0 mg/kg/injection, schedule: Q01DX001 (ip), vehicle: other) was 95 % of control.

For the compound `CC1(C)C(C#N)C(=O)N(Cc2ccccc2)C(=O)C1C#N` (stereo not drawn), the T/C is, setting by setting: (dose: 100.0 mg/kg/injection, schedule: Q04DX003 (ip), vehicle: saline with Tween-80) 101 % of control; (dose: 200.0 mg/kg/injection, schedule: Q04DX003 (ip), vehicle: saline with Tween-80) 93 % of control.

Take `COc1ccccc1NC(=O)Nc1ccc(F)cc1`: the T/C by setting is: under setting [1], 95 % of control; under setting [3], 95 % of control; under setting [2], 92 % of control; under setting [4], 92 % of control; (dose: 400.0 mg/kg/injection, schedule: Q01DX009 (ip), vehicle: Klucel (hydroxypropylcellulose) (HPC)) 108 % of control; under setting [5], 94 % of control.

For `NC(N)=N/N=C/C/C=N/N=C(N)N`, the T/C runs as follows: (dose: 15.0 mg/kg/injection, schedule: Q01DX Z (ip), vehicle: saline) 97 % of control; (dose: 30.0 mg/kg/injection, schedule: Q01DX Z (ip), vehicle: saline) 100 % of control; (dose: 60.0 mg/kg/injection, schedule: Q01DX Z (ip), vehicle: saline) 96 % of control; (dose: 120.0 mg/kg/injection, schedule: Q01DX Z (ip), vehicle: saline) 100 % of control; (dose: 120.0 mg/kg/injection, schedule: Q01DX Z (oral), vehicle: saline) 102 % of control; (dose: 240.0 mg/kg/injection, schedule: Q01DX Z (oral), vehicle: saline) 102 % of control. The T/C (dose: 480.0 mg/kg/injection, schedule: Q01DX Z (oral), vehicle: saline) is 107 % of control and the T/C (dose: 960.0 mg/kg/injection, schedule: Q01DX Z (oral), vehicle: saline) is 103 % of control.

As for `COC(=O)c1ccccc1NC(=S)NC(=O)c1ccccc1F`, the T/C (dose: 25.0 mg/kg/injection, schedule: Q01DX009 (ip), vehicle: saline with Tween-80) is 93 % of control; the T/C (dose: 50.0 mg/kg/injection, schedule: Q01DX009 (ip), vehicle: saline with Tween-80) was 92 % of control; the T/C (dose: 200.0 mg/kg/injection, schedule: Q01DX009 (ip), vehicle: saline with Tween-80) is 91 % of control.

Regarding `NC(CSSCC(N)=NC1CCCCC1)=NC1CCCCC1`, the T/C is 96 % of control and 103 % of control (dose: 3.0 mg/kg/injection, schedule: Q01DX009 (ip), vehicle: saline); 106 % of control and 90 % of control (dose: 6.0 mg/kg/injection, schedule: Q01DX009 (ip), vehicle: saline); 124 % of control (dose: 6.25 mg/kg/injection, schedule: Q04DX002 (ip), vehicle: saline with Tween-80); 103 % of control and 104 % of control (dose: 12.0 mg/kg/injection, schedule: Q01DX009 (ip), vehicle: saline); 94 % of control (dose: 12.5 mg/kg/injection, schedule: Q01DX001 (ip), vehicle: saline with Tween-80); 100 % of control and 105 % of control (dose: 12.5 mg/kg/injection, schedule: Q01DX009 (ip), vehicle: carboxymethylcellulose (CMC)). The T/C runs as follows: (dose: 12.5 mg/kg/injection, schedule: Q04DX002 (ip), vehicle: saline with Tween-80) 109 % of control; (dose: 25.0 mg/kg/injection, schedule: Q01DX001 (ip), vehicle: saline with Tween-80) 100 % of control; (dose: 25.0 mg/kg/injection, schedule: Q01DX009 (ip), vehicle: carboxymethylcellulose (CMC)) 103 % of control; (dose: 25.0 mg/kg/injection, schedule: Q04DX002 (ip), vehicle: carboxymethylcellulose (CMC)) 96 % of control and 91 % of control; (dose: 25.0 mg/kg/injection, schedule: Q04DX002 (ip), vehicle: saline with Tween-80) 102 % of control; (dose: 50.0 mg/kg/injection, schedule: Q04DX002 (ip), vehicle: carboxymethylcellulose (CMC)) 95 % of control. Further, the T/C runs as follows: (dose: 100.0 mg/kg/injection, schedule: Q04DX003 (ip), vehicle: carboxymethylcellulose (CMC)) 104 % of control; (dose: 200.0 mg/kg/injection, schedule: Q04DX003 (ip), vehicle: carboxymethylcellulose (CMC)) 96 % of control.

Consider `CCOC(CN=Cc1ccc(Cl)c(Cl)c1)OCC`, for which the T/C is 94 % of control under setting [3], 97 % of control under setting [4] and 96 % of control under setting [5].
